From paper PMC10900488, “Synthesis and Evaluation of (Bis)benzyltetrahydroisoquinoline Alkaloids as Antiparasitic Agents” (JACS Au, 2024)
Read-outs that look alike come from different tables or passages of the source.

What was measured:
[1] = Mammalian toxicity, MTT colorimetric; type: cell-based, murine; details: mouse
Procedure: Table 1 depicts the antileishmanial (L. infantum) activity evaluation performed against both the amastigote form (evaluated microscopically using an ex vivo intracellular model of mice macrophages) and the promastigote one (using an MTT colorimetric method).[32],[33] The cytotoxicity was evaluated against NCTC cells using an MTT colorimetric method and the selectivity index was determined using the ratio between the CC50 values (NCTC cells) and the IC50 values (amastigotes).[32] […] With respect to the substituents on the C ring, larger, hydrophobic groups conferred greater bioactivity (e.g., 9b–d), whereas small, hydrophilic groups such as a hydroxyl group afford modest to poor bioactivity. […]
Murine conjunctive fibroblasts NCTC clone 929 (ATCC) were maintained in 10% foetal calf serum supplemented RPMI-1640 medium (pH 7.2) at 37 °C in a humidified incubator with 5% CO2. […]
(§1) Biological activity assays […]
NCTC cells (6 × 10^4/well) were added to a 96-well plate. Treatments of the cells with selected compounds (serially diluted 1.5 to 200 μM) was performed in a humidified incubator for 96 h at 37 °C and with 5% CO2.
The MTT colorimetric method was used to determine the 50% cytotoxic concentration (CC50) and the selectivity index (CC50 against NCTC cells/IC50 against amastigotes).15 […]
[…] At 6 h and 24 h post-treatment, a 1 mL aliquot was taken for imaging. The cell cycle experiment was preformed twice independently.
Generation of mNG::RAD51 tagged cell line
The single-stranded DNA-binding protein RAD51, associated with DNA Repair, LmxM.28.0550 was tagged with endogenous fluorescent protein mNeonGreen (mNG) at the N-terminus. […]
Primers for constructs and sgRNA were designed using LeishGEdit (http://www.leishGEdit.net).
PCR was at 94 °C for 5 min, followed by 35 cycles at 94 °C (15 sec), 65 °C (15 sec), 72 °C (2 min) then finally 72 °C (1 min).
PCR was at 94 °C for 30 sec, followed by 30 cycles at 94 °C (30 sec), 60 °C (30 sec), 72 °C (30 sec) then finally 72 °C (2 min). […] Combined PCR products were precipitated for 20 min with 10 μL 3M sodium acetate and 300 μL EtOH, pelleted at 14000 min-1 30 min, washed once with 70% EtOH, re-pelleted and resuspended in […]
Promastigotes (1 × 10^7 cells) were combined with PCR products and transfected using the Amaxa Nucleofector II.17 Electroporation was performed using 2 mm cuvettes on the X-100 program, followed by immediate suspension in pre-warmed M199 medium. Successful transfectants were selected with 20 μg mL-1 Puromycin 15 h after transfection, taking 4 days to reach stable growth in culture. mNG::RAD51 nuclear foci studies mNG::RAD51 promastigotes (5 × 10^6 cells mL-1) in 7 mL of M199 medium were treated with 7 μL o f compound (S)-9a or (S)-9b dissolved in DMSO giving a final concentration of 50 μM. Phleomycin was used as a positive control at a final concentration of 25 μg mL-1. At T = 0, 15, 30, 60 min, and 2, 6, 24 h post-treatment a 0.8 mL aliquot was taken for imaging.

T. cruzi amastigotes = assay: Antiamastigote assay (T. cruzi), ex vivo intracellular model using mice macrophages, microscopy; type: cell-based, Trypanosoma (T.) cruzi
Procedure: (§2) T. cruzi also assumes several cell morphologies during its lifecycle, which differ between the insect vector and mammalian host. In the latter environment, the parasite transitions between extracellular bloodstream trypomastigotes and intracellular amastigotes; both forms are clinically relevant, particularly during the acute stage of Chagas disease.[34] In this work, antitrypanosomal activity was tested against both the amastigote form (evaluated microscopically using an ex vivo intracellular model using mice macrophages) and the trypomastigote form (using the resazurin in vitro assay).[33],[35] […] In silico predictions of pharmacokinetic profiles were carried out using the SwissADME webtool (see the Supporting Information for details).[36] […]
(§3) […] Cultivation was performed in 2% fetal calf serum supplemented RPMI-1640 medium.
(§4) The trypomastigotes were maintained in a humidified incubator at 37 °C and with 5% CO2. […]
(§5) Peritoneal macrophages were obtained via washing the peritoneal cavity of BALB/c mice with 10% foetal calf serum supplemented RPMI-1640 medium (pH 7.2). The macrophages were maintained in a humidified incubator at 37 °C and with 5% CO2.
as §1
Peritoneal macrophages (1 × 10^5 cells/well) obtained from the peritoneal cavity of BALB/C mice were added to 16-well chambers (NUNC, Thermo Fischer Scientific). The cells were infected with trypomastigotes (10:1 parasites/macrophage) for 2 h. Then treatment of the infected macrophages with selected compounds (serially diluted 1.2 to 100 μM) was performed in a humidified incubator for 48 h at 37 °C and with 5% CO2. The treated cells were fixed on slides using methanol, stained with Giemsa and observed under a light microscope (EVOS M5000, Thermo, USA) with digital image equipment. The infection index was used in order to determine the half inhibitory concentration (IC50) (no. infected macrophages × no. amastigotes / total no.

[2] = test system: L. infantum promastigotes; assay: Antipromastigote assay (L. infantum), MTT colorimetric; type: cell-based, Leishmania (L.) infantum; details: 48 h; for IC50: Leishmania infantum, read-out: L. infantum IC50 promastigotes
Procedure: (§6) Table 1 depicts the antileishmanial (L. infantum) activity evaluation performed against both the amastigote form (evaluated microscopically using an ex vivo intracellular model of mice macrophages) and the promastigote one (using an MTT colorimetric method).[32],[33] The cytotoxicity was evaluated against NCTC cells using an MTT colorimetric method and the selectivity index was determined using the ratio between the CC50 values (NCTC cells) and the IC50 values (amastigotes).[32] […] With respect to the substituents on the C ring, larger, hydrophobic groups conferred greater bioactivity (e.g., 9b–d), whereas small, hydrophilic groups such as a hydroxyl group afford modest to poor bioactivity.
(§7) Leishmania (L.) infantum (MHOM/BR/1972/LD) amastigotes were obtained from golden hamsters (Mesocricetus auratus) spleens following 60-70 days of infection via differential centrifugation. The Stauber method was used to determine the number of parasites.12 […]
Biological activity assays
Antipromastigote Assay (L. infantum)
L. infantum promastigotes (1 × 10^6 cells/well) were added to a 96-well plates. Treatment of the cells with selected compounds (serially diluted 0.14 to 200 μM) was performed in M199 medium supplemented with 0.25% hemin and 10% fetal bovine serum for 48 h at 24 °C. The MTT colorimetric assay was used to determine the activity (IC50) of the compounds. Miltefosine was used as a standard drug and untreated promastigotes were used as a negative control. The half inhibitory concentration (IC50) was determined from a sigmoidal regression of the concentration-response curves generated in GraphPadPrism7. […]

T. cruzi trypomastigotes = assay: Antitrypomastigote assay (T. cruzi), resazurin; type: cell-based, Trypanosoma (T.) cruzi; details: 24 h, read-out: T. cruzi IC50 trypomastigotes
Procedure: as §2, §3, §4, §1
The half inhibitory concentration (IC50) was determined from a sigmoidal regression of the concentration-response curves generated in GraphPadPrism7. […]
Treatment of the cells with selected compounds (serially diluted 1.2 to 150 μM) was performed in a humidified incubator in RPMI 1640 medium for 24 h at 37 °C and with 5% CO2. Resazurin (0.011% in PBS) was added subsequently to verify parasite viability. Benznidazole was used as a standard drug. The optical density was determined at 570 nm using the FilterMax F5 (Molecular Devices). […]

L. infantum amastigotes = assay: Antiamastigote assay (L. infantum), ex vivo intracellular model of mice macrophages, microscopy; type: cell-based, Leishmania (L.) infantum; details: 96 h, read-out: L. infantum IC50 amastigotes
Procedure: as §6, §7, §5, §1
Antiamastigote Assay (L. infantum)
Peritoneal macrophages (1 × 10^5/well) were added to a 16-well slide chambers (NUNC) and incubated with 5% CO2 at 37 °C. The cells were subsequently infected with L. infantum amastigotes (10:1 amastigotes/macrophage) for 24 h. Treatment of the cells with selected compounds (serially diluted 1.2 to 150 μM) was performed in a humidified incubator for 96 h at 37 °C and with 5% CO2. Untreated cells were used as a negative control and miltefosine was used as a standard drug. The treated cells were fixed on slides with methanol, stained with Giemsa and observed under a light microscope.13 The infection index was used in order to determine the half inhibitory concentration (IC50) (no. infected macrophages × no. amastigotes / total no. […]

[3] = Trypanosoma cruzi, Peritoneal macrophage, 48 h, ± SD, read-out: T. cruzi IC50 amastigotes
[4] = Trypanosoma cruzi, ± SD, resazurin
[5] = Leishmania infantum, Peritoneal macrophage, ± SD, intracellular, peritoneal macrophages
[6] = ± SD, NCTC cells, MTT, 96 h, read-out: CC50
[7] = Leishmania infantum, Peritoneal macrophage

| IC50 (T. cruzi amastigotes; [3]) | IC50 ([2]; ± SD, MTT) | IC50 (T. cruzi trypomastigotes; [4]) | IC50 (L. infantum amastigotes; [5]) | Compound | CC50 at 96 h [1] | further results |
| --- | --- | --- | --- | --- | --- | --- |
| 5 ± 1.5 µM | – | 12.8 ± 0.7 µM | – | O=C(Cn1ccnc1[N+](=O)[O-])NCc1ccccc1 [benznidazole, reference compound] | > 200 µM | – |
| > 100 µM | 0.4 ± 0.2 µM | 1.3 ± 0.7 µM | > 150 µM | COc1ccc(COc2ccc(C[C@@H]3c4cc(OC)c(OC)cc4CCN3C)cc2Oc2ccc(C[C@H]3c4cc(OC)c(OC)cc4CCN3C)cc2)cc1 [(R,S)-12] | 2.7 ± 1.6 µM | L. infantum IC50 promastigotes ([2]; ± SD, MTT): submicromolar |
| – | – | – | 6.5 ± 3 µM | CCCCCCCCCCCCCCCCOP(=O)([O-])OCC[N+](C)(C)C [miltefosine, reference compound] | 120 ± 4.2 µM | – |
| 3.3 ± 0.01 µM | 5.2 ± 1.3 µM | 11.1 ± 1.7 µM | > 150 µM | COc1ccc(COc2ccc(C[C@H]3c4cc(OC)c(OC)cc4CCN3C)cc2Br)cc1 [(S)-9c] | 6.3 ± 2.3 µM | – |
| – | – | – | – | COc1ccc(C[C@H]2c3cc(OC)c(OC)cc3CCN2C)cc1O [(S)-10a, (+)-laudanidine] | – | CC50 at 96 h [1, 6]: > 200 µM; IC50 (T. cruzi amastigotes; Trypanosoma cruzi, Peritoneal macrophage, 48 h, read-out: T. cruzi IC50 amastigotes, ± SD): < 10 µM; IC50 (T. cruzi amastigotes; read-out: T. cruzi IC50 amastigotes, ± SD, peritoneal macrophages, 48 h): 5.9 ± 0.9 µM; IC50 [2]: 95.4 ± 2 µM; IC50 (T. cruzi trypomastigotes; Trypanosoma cruzi): > 150 µM; IC50 (L. infantum amastigotes; [7]): > 150 µM |
| > 100 µM | 0.7 ± 0.01 µM | 3.7 ± 3.6 µM | > 150 µM | COc1cc2c(cc1OC)[C@H](Cc1ccc(Oc3cc(C[C@H]4c5cc(OC)c(OC)cc5CCN4C)ccc3OC)cc1)N(C)CC2 [(S,S)-11, (+)-O-methylthalibrine] | 11.4 ± 0.2 µM | – |
| 3.2 ± 0.5 µM | 3.7 ± 0.2 µM | < 10 µM | < 10 µM | COc1cc2c(cc1OC)[C@H](Cc1ccc(OCc3ccccc3)cc1)N(C)CC2 [(S)-9d] | 6.6 ± 1.5 µM | IC50 (T. cruzi trypomastigotes; ± SD, resazurin): 7.6 ± 0.4 µM; IC50 (L. infantum amastigotes; ± SD, intracellular, peritoneal macrophages): 7.5 ± 2.2 µM |
| – | – | – | – | COc1ccc(C[C@@H]2c3cc(OC)c(OC)cc3CCN2C)cc1O [(R)-10a, (–)-laudanidine] | – | CC50 at 96 h [1, 6]: > 200 µM; IC50 [2]: 30.2 ± 4.8 µM; IC50 (T. cruzi trypomastigotes; Trypanosoma cruzi): > 150 µM; IC50 (L. infantum amastigotes; [7]): > 150 µM |

| Compound | IC50 (T. cruzi amastigotes; [3]) | IC50 ([2]; ± SD, MTT) | IC50 (T. cruzi trypomastigotes; [4]) | IC50 (L. infantum amastigotes; [5]) | CC50 at 96 h [1] | further results |
| --- | --- | --- | --- | --- | --- | --- |
| COc1cc2c(cc1OC)[C@@H](Cc1ccc(Oc3cc(C[C@@H]4c5cc(OC)c(OC)cc5CCN4C)ccc3O)cc1)N(C)CC2 [(R,R)-13, (–)-dauricine] | > 100 µM | 3.2 ± 1.1 µM | 3.7 ± 2.9 µM | 3.7 ± 0.6 µM | 7 ± 1 µM | – |
